For eight compounds, IC50 and Solubility results are on record in patent US20260265216A1, “NOVEL THIOREDOXIN REDUCTASE INHIBITORS” (GENEXPLAIN GMBH, priority 2021, published 2026).

For one series, the system named is MCF7-Cas9. The series can be described thus: Growth suppression assay (resazurin). The format is cell-based. To be noted: 48 hours, hydrochloride. The protocol: (§1) Cells were grown in 96-well plates at a density of 3000 cells per well with or without doxycycline and treated with compounds. After 48 hours of incubation the proliferative cell reagent resazurin (Thermo Fisher Scientific) was added to the cells. The degree of resazurin reduction, which reflects cell viability, was measured by microplate reader by monitoring the absorbance at 570 nm and 600 nm, according to the manufacturer.
(§2) Two carcinoma cell lines, MCF7 (breast carcinoma) and HCT116 (colon carcinoma) grown in 96-well plates, were treated with increasing concentrations of the synthesized compounds, ranging from […]. After 48 hours of incubation the proliferative cell reagent resazurin was added to the cells. The degree of resazurin reduction, which reflects cell viability, was measured by microplate reader by monitoring the absorbance at 570 nm and 600 nm, according to the manufacturer and the IC50 was determined (Table 1).
A general note: Resazurin is reduced to fluorescent resorufin, in cell work by metabolically active cells.

A further series relates to HCT116-Cas9. The experiment in a line: Growth suppression assay (resazurin). The format is cell-based. The settings on record: 48 hours. How it is done:
as §1, §2

A further series is described as follows: Solubility. To be noted: solvent in which soluble. The format is physicochemical.

Each structure is given as a SMILES string. pIC50: −log10 of the molar value. Structures can show the parent of a compound that is named as a salt. Some results are limits rather than exact numbers.

As to `N#Cc1c(-c2ccncc2)[n+]([O-])c2cc(N3CCOCC3)c(F)cc2[n+]1[O-]` [1a*HCl, 7-Fluoro-6-(morpholin-4-yl)-3-(pyridin-4-yl)quinoxaline-2-carbonitrile-1,4-dioxide hydrochloride], the pIC50 (in general, −log10 of the IC50, conventionally taken in molar units) in the series with MCF7-Cas9 was below 5.00; with HCT116-Cas9 (hydrochloride) it was 5.03.

Turning to `N#Cc1c(-c2ccncc2)[n+]([O-])c2cc(F)c(N3CCOCC3)cc2[n+]1[O-]` [1b*MsOH, 6-Fluoro-7-(morpholin-4-yl)-3-(pyridin-4-yl)quinoxaline-2-carbonitrile-1,4-dioxide methanesulfonate], the pIC50 in the series with HCT116-Cas9 (methanesulfonate) was 5.47.

As to `N#Cc1c(-c2ccncc2)[n+]([O-])c2cc(N3CCOCC3)c(F)cc2[n+]1[O-]` [Compound 1a, 7-Fluoro-6-(morpholin-4-yl)-3-(pyridin-4-yl)quinoxaline-2-carbonitrile 1,4-dioxide], the Solubility result in “Solubility” was “Warm DMSO”.

For `N#Cc1c(-c2ccncc2)[n+]([O-])c2cc(F)c(N3CCOCC3)cc2[n+]1[O-]` [Compound 1b, 6-Fluoro-7-(morpholin-4-yl)-3-(pyridin-4-yl)quinoxaline-2-carbonitrile-1,4-dioxide], in the series “Solubility”, the Solubility entry was “Warm DMSO”.

As to `N#Cc1c(-c2cccnc2)[n+]([O-])c2cc(N3CCOCC3)c(F)cc2[n+]1[O-]` [Compound 1c, 7-Fluoro-6-(morpholin-4-yl)-3-(pyridin-3-yl)quinoxaline-2-carbonitrile-1,4-dioxide], the Solubility result in the series “Solubility” is “Warm DMSO”.

Take `N#Cc1c(-c2cccnc2)[n+]([O-])c2cc(F)c(N3CCOCC3)cc2[n+]1[O-]` [Compound 1d, 6-Fluoro-7-(morpholin-4-yl)-3-(pyridin-3-yl)quinoxaline-2-carbonitrile-1,4-dioxide]: the Solubility entry in “Solubility” is reported as “Warm DMSO”.

Take `N#Cc1c(-c2cccnc2)[n+]([O-])c2cc(F)c(N3CCCC3)cc2[n+]1[O-]` [Compound 1f, 6-Fluoro-7-(pyrrolidin-1-yl)-3-(pyridin-3-yl)quinoxaline-2-carbonitrile-1,4-dioxide]: in the series “Solubility”, the Solubility result is given as “Warm DMSO”.

`N#Cc1c(-c2cccnc2)[n+]([O-])c2cc(F)c(N3CCCCC3)cc2[n+]1[O-]` [Compound 1g, 6-Fluoro-7-(piperidin-1-yl)-3-(pyridin-3-yl)quinoxaline-2-carbonitrile-1,4-dioxide]: in the series “Solubility”, the Solubility result is given as “Warm DMSO”.
